{"source": "patent US20240226041A1", "about": "“METHODS AND COMPOSITIONS FOR TREATMENT OF NEUROPATHIC PAIN USING STAT3 INHIBITORS” (priority 2021, published 2024)", "key": {"[1]": {"test_system": "male and female C57BL/6j mice", "assay": "Spared nerve injury (SNI) model, von Frey mechanical allodynia", "type": "in vivo, mouse", "procedure": "Data are shown as mean±SEM and were analyzed using two-way ANOVA followed by Sidak's post-hoc test. *P<0.05. […] Data are from 4 vehicle-treated and 5 TTI-101-treated male mice per group). Two-way ANOVA followed by Sidak's post-hoc test: P<0.05.\nSNI induced profound mechanical allodynia in male and female mice.\nSpared nerve injury (SNI). SNI surgery was performed on male and female C57BL/6j mice (8 weeks old; Jackson Laboratories), as described (Singhmar et al., 2020). The sural, common peroneal and tibial branches of the sciatic nerve of the left hind paw were exposed under isoflurane anesthesia. A silk suture was used to ligate the common peroneal and tibial branches and 2-4 mm of the distal ends were removed. The sural nerve was left intact. Mice received buprenorphine right before and 1 hour after surgery. […] Mechanical sensitivity was monitored over time using von Frey hairs."}, "C57BL/6 mice": {"test_system": "C57BL/6 mice", "assay": "Example 3: mouse SNI model, pain behavior, barrier function, leukocyte infiltration, inflammatory mediators", "type": "in vivo", "procedure": "SNI surgery is carried out in C57BL/6 mice as previously described. Analgesia is limited to perioperative administration of buprenorphine SR (0.05 mg/kg SQ). […] Animals then are examined for behavioral pain sensitivity. Plantar mechanical sensitivity is assessed using hind paw stimulation with von Frey filaments. Frequency of hindlimb withdrawal in response to application of filaments of increasing force is used as a readout of mechanical sensitivity. Plantar cold sensitivity is tested using the plantar cold assay, in which hindpaw withdrawal in response to a cooling source is used as a readout of cold sensitivity. Testing is carried out after habituation at baseline (prior to surgery), then once weekly for 8 weeks following surgery. Daily testing of von Frey and cold sensitivity is carried out during the TTI-101 treatment window. Additional behavioral testing occurs weekly to more extensively validate analgesic efficacy and functional recovery. The mechanical conflict-avoidance (MCA) test uses a chamber of blunt probes to measure aversion to hindpaw mechanical stimuli and serves as an additional assessment of mechanical sensitivity. Plantar cold sensitivity is measured using the thermal gradient ring assay, which uses a temperature gradient to measure temperature preference/aversion. Finally, paw placement and other gait parameters are assessed using digital gait analysis (Catwalk XT) and a burrowing activity assay (spontaneous clearing of bedding material from a tube). […] All experiments are performed by observers blinded to the genotype and drug formulation administered. This additional behavioral testing is done from baseline (8 weeks)—prior to nerve injury—then weekly thereafter until 16 weeks of age. Mice are euthanized humanely by cardiac puncture and necropsy performed to remove the contralateral and ipsilateral sciatic nerves (SN) and dorsal root ganglia (DRG). […] Anticoagulated blood at both time points is used to measure levels of pro- and anti-inflammatory cytokines, including IL-4, IL-6, IL-10, IL-13, TGF-β and IFN-γ by Luminex. One portion of each SN and DRG is snap-frozen and another portion placed in formalin, then paraffin imbedded (FFPE). Cryotome sections of snap-frozen tissues are used to generate protein lysates for measurement of pY-STAT3, IL-1B and IL-6 by Luminex and Western blotting. […] Snap-frozen tissues are processed to isolate RNA for RNA sequencing (RNA-seq) analysis. Microtome sections of FFPE blocks are H&E stained and undergo immunohistochemistry staining and scoring for pY-STAT3, CD68 (macrophages), PGP9.5 (sensory nerves) and GAP43 (regenerating nerves). Detection of oxidative stress in sciatic nerve and DRG via IHC for nitrotyrosine, 4-hydroxynonenal and MnSOD is carried out. Vascular endothelium permeability in nerve is determined by quantifying the extravasation of the fluorescent dye sodium fluorescein. Cross-sections of the nerve are quantified using the EVOS fluorescence microscope, and mean fluorescence intensity and the percent area positive are determined using NIH ImageJ software. In a subset of mice, characterization of SN and DRG macrophage phenotype are analyzed using flow cytometry with conjugated antibodies against CD86, F4/80, CD163 and CD206."}, "dogs": {"test_system": "dogs", "details": "dog, in vivo; cited from earlier work"}, "DRG neurons": {"test_system": "DRG neurons", "assay": "Example 7: DRG neuron Ca2+ flux and electrical activity, CCI mice", "type": "cell-based, mouse", "details": "CCI mice with and without TTI-101 treatment", "procedure": "Spontaneous electrical activity is assessed ex vivo using multi-electrode array recording for 3 days in vitro."}, "[2]": {"details": "100 mg/kg oral gavage daily for 5 days"}}, "note": "Entries after “also recorded” stand apart in the source; their conditions may differ."}
{"smiles": "COc1ccc(S(=O)(=O)Nc2cc(-c3c(O)ccc4ccccc34)c(O)c3ccccc23)cc1", "note": "[TTI-101]", "values": [{"measurement": "SNI-induced mechanical allodynia, administration", "setting": "[1]; 50 mg/kg oral gavage from day 10 after SNI, male and female mice", "result": "reduced mechanical allodynia"}, {"measurement": "SNI-induced mechanical allodynia, repeated dosing", "setting": "[1]; 50 mg/kg oral gavage, 6 doses every other day from day 10 after SNI, male and female mice", "result": "complete reversal; also recorded: reverses SNI-induced allodynia"}, {"measurement": "mechanical allodynia at 31 and 52 days after start of treatment", "setting": "[1]; 19 and 40 days after the last dose, male mice", "result": "no signs of mechanical allodynia"}, {"measurement": "day until which beneficial effect was sustained", "setting": "[1]; after start of treatment, male mice", "result": 52, "unit": "days"}, {"measurement": "time after the last dose for which beneficial effect was sustained", "setting": "[1]; male mice", "result": 40, "unit": "days"}, {"measurement": "antalgic gait patterns/burrowing aversion", "setting": "C57BL/6 mice; [2]", "result": "net reduction"}, {"measurement": "macrophage infiltration of SN and DRG", "setting": "C57BL/6 mice; [2]", "result": "net reduction"}, {"measurement": "mechanical and cold hypersensitivity", "setting": "C57BL/6 mice; [2]", "result": "net reduction"}, {"measurement": "plasma and tissue levels / pY-STAT3 in macrophages in SN and DRG", "setting": "C57BL/6 mice; [2]", "result": "achieves levels in the plasma and tissue adequate to reduce levels of pY-STAT3"}, {"measurement": "RNA-seq gene signatures", "setting": "C57BL/6 mice; SN and DRG", "result": "shifts RNA-seq gene signatures toward a net promotion of M2-like macrophage polarization, improved tight junction/barrier formation, reduced ROS production, and circulating pro-inflammatory markers"}, {"measurement": "serious toxicity including lactic acidosis", "setting": "dogs", "result": "did not demonstrate any serious toxicity including lactic acidosis"}, {"measurement": "spontaneous activity and baseline cytosolic Ca2+ concentration in DRGs ipsilateral to injury", "setting": "DRG neurons", "result": "reverses the elevated spontaneous activity and baseline cytosolic Ca^2+ concentration"}]}
